From ChEMBL document CHEMBL3734734, “Synthesis and antibacterial activity of trivalent ultrashort Arg-Trp-based antimicrobial peptides (AMPs)” (2015) come the findings set out here.

One may read the MIC as the smallest concentration in the dilution series that meets the test's criterion for growth inhibition. Low values mean greater potency, high ones weaker potency.

Holding throughout (assay type): functional
In one test the test system is Escherichia coli. Nature of the test: Antibacterial activity against Escherichia coli DSM 30083 after 16 hrs by microdilution assay. The note with it: DSM 30083 = JCM 1649 = ATCC 11775, 16 h. On the technique in general: Dilution methods test growth across graded concentrations, often in twofold steps.
The test system of the next test is Acinetobacter baumannii. Nature of the test: Antibacterial activity against Acinetobacter baumannii DSM 30007 after 16 hrs by microdilution assay. The note with it: DSM 30007, 16 h.
The subject of the next test is Bacillus subtilis. As to the kind of experiment: Antibacterial activity against Bacillus subtilis 168 after 16 hrs by microdilution assay. Conditions: subsp. subtilis str. 168, 16 h.
Test [1] relates to Staphylococcus aureus. As to the kind of experiment: Antibacterial activity against Staphylococcus aureus DSM 20231 after 16 hrs by microdilution assay. The note with it: DSM 20231, 16 h.
Test [2] has as its system Staphylococcus aureus. Nature of the test: Antibacterial activity against methicillin-resistant Staphylococcus aureus ATCC 43300 after 16 hrs by microdilution assay. Conditions: ATCC 43300, 16 h.

Converted amounts (≈) assume the structure as drawn.

In the case of `CCc1c(Cn2cc(CN[C@@H](Cc3c[nH]c4ccccc34)C(=O)N[C@@H](CCCNC(=N)N)C(=O)O)nn2)c(CC)c(Cn2cc(CN[C@@H](Cc3c[nH]c4ccccc34)C(=O)N[C@@H](CCCNC(=N)N)C(=O)O)nn2)c(CC)c1Cn1cc(CN[C@@H](Cc2c[nH]c3ccccc23)C(=O)N[C@@H](CCCNC(=N)N)C(=O)O)nn1`, the MIC in the test with Escherichia coli is 15 µM (≈ 22.8 µg/mL); with Acinetobacter baumannii it was 15 µM (≈ 22.8 µg/mL); against Bacillus subtilis, 2.2 µM (≈ 3.35 µg/mL); against Staphylococcus aureus [1], 15 µM (≈ 22.8 µg/mL); with Staphylococcus aureus [2], 7.3 µM (≈ 11.1 µg/mL).

Regarding `N=C(N)NCCC[C@H](NC(=O)[C@H](Cc1c[nH]c2ccccc12)NCc1cn(Cc2cc(Cn3cc(CN[C@@H](Cc4c[nH]c5ccccc45)C(=O)N[C@@H](CCCNC(=N)N)C(=O)O)nn3)cc(Cn3cc(CN[C@@H](Cc4c[nH]c5ccccc45)C(=O)N[C@@H](CCCNC(=N)N)C(=O)O)nn3)c2)nn1)C(=O)O`, the minimum inhibitory concentration (MIC) turned out to be 60 µM (≈ 86.3 µg/mL) in the test with Escherichia coli; 60 µM (≈ 86.3 µg/mL) in the test with Acinetobacter baumannii; 7.6 µM (≈ 10.9 µg/mL) with Bacillus subtilis; 30 µM (≈ 43.2 µg/mL) in the test on Staphylococcus aureus [1]; 15 µM (≈ 21.6 µg/mL) against Staphylococcus aureus [2].

`N=C(N)NCCC[C@H](NC(=O)[C@@H](Cc1c[nH]c2ccccc12)NCc1cn(Cc2cc(Cn3cc(CN[C@H](Cc4c[nH]c5ccccc45)C(=O)N[C@@H](CCCNC(=N)N)C(=O)N[C@H](Cc4c[nH]c5ccccc45)C(=O)O)nn3)cc(Cn3cc(CN[C@H](Cc4c[nH]c5ccccc45)C(=O)N[C@@H](CCCNC(=N)N)C(=O)N[C@H](Cc4c[nH]c5ccccc45)C(=O)O)nn3)c2)nn1)C(=O)N[C@H](Cc1c[nH]c2ccccc12)C(=O)O` (stereo in doubt): the MIC in the test on Escherichia coli was 12 µM (≈ 24 µg/mL); against Acinetobacter baumannii it was over 100 µM; in the test with Bacillus subtilis it was 3 µM (≈ 5.99 µg/mL); against Staphylococcus aureus [1] it was over 100 µM; in the test with Staphylococcus aureus [2] it was 12 µM (≈ 24 µg/mL).

Turning to H-RWRWRW-NH2, the MIC in the test on Escherichia coli came out at 21 µM; against Acinetobacter baumannii, 21 µM; with Bacillus subtilis, 1.3 µM; against Staphylococcus aureus [1], 11 µM; in the test on Staphylococcus aureus [2] it was 5.3 µM.

Take `CCc1c(Cn2cc(CN[C@@H](CCCNC(=N)N)C(=O)N[C@@H](Cc3c[nH]c4ccccc34)C(=O)N[C@@H](CCCNC(=N)N)C(=O)O)nn2)c(CC)c(Cn2cc(CN[C@@H](CCCNC(=N)N)C(=O)N[C@@H](Cc3c[nH]c4ccccc34)C(=O)N[C@@H](CCCNC(=N)N)C(=O)O)nn2)c(CC)c1Cn1cc(CN[C@@H](CCCNC(=N)N)C(=O)N[C@@H](Cc2c[nH]c3ccccc23)C(=O)N[C@@H](CCCNC(=N)N)C(=O)O)nn1`: the MIC stood at 13 µM (≈ 25.9 µg/mL) in the test on Escherichia coli; 26 µM (≈ 51.8 µg/mL) in the test on Acinetobacter baumannii; 3 µM (≈ 5.97 µg/mL) in the test on Bacillus subtilis; 13 µM (≈ 25.9 µg/mL) against Staphylococcus aureus [1]; 13 µM (≈ 25.9 µg/mL) with Staphylococcus aureus [2].

Turning to `CCc1c(Cn2cc(CN[C@H](Cc3c[nH]c4ccccc34)C(=O)N[C@@H](CCCNC(=N)N)C(=O)N[C@H](Cc3c[nH]c4ccccc34)C(=O)O)nn2)c(CC)c(Cn2cc(CN[C@H](Cc3c[nH]c4ccccc34)C(=O)N[C@@H](CCCNC(=N)N)C(=O)N[C@H](Cc3c[nH]c4ccccc34)C(=O)O)nn2)c(CC)c1Cn1cc(CN[C@H](Cc2c[nH]c3ccccc23)C(=O)N[C@@H](CCCNC(=N)N)C(=O)N[C@H](Cc2c[nH]c3ccccc23)C(=O)O)nn1` (stereo in doubt), the MIC is 16 µM (≈ 33.3 µg/mL) against Escherichia coli; 32 µM (≈ 66.6 µg/mL) in the test with Acinetobacter baumannii; 1 µM (≈ 2.08 µg/mL) in the test on Bacillus subtilis; 4 µM (≈ 8.33 µg/mL) in the test on Staphylococcus aureus [1]; 2 µM (≈ 4.16 µg/mL) in the test with Staphylococcus aureus [2].

With `N=C(N)NCCC[C@H](NC(=O)[C@H](Cc1c[nH]c2ccccc12)NC(=O)[C@H](CCCNC(=N)N)NCc1cn(Cc2cc(Cn3cc(CN[C@@H](CCCNC(=N)N)C(=O)N[C@@H](Cc4c[nH]c5ccccc45)C(=O)N[C@@H](CCCNC(=N)N)C(=O)O)nn3)cc(Cn3cc(CN[C@@H](CCCNC(=N)N)C(=O)N[C@@H](Cc4c[nH]c5ccccc45)C(=O)N[C@@H](CCCNC(=N)N)C(=O)O)nn3)c2)nn1)C(=O)O`, the MIC came out at 13 µM (≈ 24.8 µg/mL) against Escherichia coli; 54 µM (≈ 103 µg/mL) against Acinetobacter baumannii; 6 µM (≈ 11.4 µg/mL) in the test with Bacillus subtilis; 27 µM (≈ 51.5 µg/mL) with Staphylococcus aureus [1]; 13 µM (≈ 24.8 µg/mL) against Staphylococcus aureus [2].

As for `O=C(O)c1cn(C2CC2)c2cc(N3CCNCC3)c(F)cc2c1=O` [CIPROFLOXACIN], the MIC came out at 1.5 µM (≈ 0.497 µg/mL) in the test with Escherichia coli; 24 µM (≈ 7.95 µg/mL) against Acinetobacter baumannii; 24 µM (≈ 7.95 µg/mL) with Bacillus subtilis; 12 µM (≈ 3.98 µg/mL) in the test on Staphylococcus aureus [1]; 12 µM (≈ 3.98 µg/mL) in the test on Staphylococcus aureus [2].

For the molecule `N=C(N)NCCC[C@H](NC(=O)[C@H](Cc1c[nH]c2ccccc12)NC(=O)[C@@H](N)CCCNC(=N)N)C(=O)NCc1cn(Cc2ccccc2)nn1`, the MIC in the test with Escherichia coli was over 100 µM; in the test with Acinetobacter baumannii it was over 100 µM; against Bacillus subtilis, 35 µM (≈ 24 µg/mL); in the test with Staphylococcus aureus [1] it was over 100 µM; against Staphylococcus aureus [2], 70 µM (≈ 48.1 µg/mL).

Turning to `CCc1c(Cn2cc(CN[C@@H](CCCNC(=N)N)C(=O)N[C@@H](Cc3c[nH]c4ccccc34)C(=O)O)nn2)c(CC)c(Cn2cc(CN[C@@H](CCCNC(=N)N)C(=O)N[C@@H](Cc3c[nH]c4ccccc34)C(=O)O)nn2)c(CC)c1Cn1cc(CN[C@@H](CCCNC(=N)N)C(=O)N[C@@H](Cc2c[nH]c3ccccc23)C(=O)O)nn1`, the MIC came out at 60 µM (≈ 91.4 µg/mL) in the test on Escherichia coli; 15 µM (≈ 22.8 µg/mL) against Acinetobacter baumannii; 1.8 µM (≈ 2.74 µg/mL) in the test on Bacillus subtilis; 7.3 µM (≈ 11.1 µg/mL) against Staphylococcus aureus [1]; 7.3 µM (≈ 11.1 µg/mL) with Staphylococcus aureus [2].

Consider `N=C(N)NCCC[C@H](NCc1cn(Cc2cc(Cn3cc(CN[C@@H](CCCNC(=N)N)C(=O)N[C@@H](Cc4c[nH]c5ccccc45)C(=O)O)nn3)cc(Cn3cc(CN[C@@H](CCCNC(=N)N)C(=O)N[C@@H](Cc4c[nH]c5ccccc45)C(=O)O)nn3)c2)nn1)C(=O)N[C@@H](Cc1c[nH]c2ccccc12)C(=O)O`, for which the MIC turned out to be 60 µM (≈ 86.3 µg/mL) against Escherichia coli; 30 µM (≈ 43.2 µg/mL) against Acinetobacter baumannii; 3.8 µM (≈ 5.47 µg/mL) in the test with Bacillus subtilis; 30 µM (≈ 43.2 µg/mL) against Staphylococcus aureus [1]; 15 µM (≈ 21.6 µg/mL) against Staphylococcus aureus [2].
